The test system of series [1] is rs17879961 (CHEK2 c.599T>C). The series can be described thus: Lung cancer SNP panel OLA on PCR-amplified cell line DNA. Conditions: PCR-amplified DNA from HIL-60 cell line. The procedure: (§1) The probe sequences used for each mutation are provided in Tables 42 (upstream) and 43 (downstream), below.
(§2) To test the probes for each mutation, probes from either the 1st or 2nd strand were chosen and tested against DNA extracted from a HIL-60 cell line. DNA was extracted using the Gentra Puregene Cell Kit (Qiagen Cat #158388) and 10 ng DNA was amplified using the MyTaq HS Master Mix (Bioline Cat #BIO-25045) and assay-specific PCR forward and revers primers, shown in Tables 44 and 45, respectively.
(§3) Following amplification, OLA was performed as described in Example 7 and the frequency of WT and Mutant alleles was determined.

For series [2], the system named is rs212090 (ABCC1 c.*866T>A). The description is as above. The settings on record: PCR-amplified DNA from HIL-60 cell line. The procedure: as §1, §2, §3
Series [3] deals with rs8034191 (LOC123688 or HYKK c.337+256T>C). Described as above. The settings on record: PCR-amplified DNA from HIL-60 cell line. The procedure:
as §1, §2, §3

In series [4] the test system is miR-122. Conditions: reported by Rissin et al., PLOS One (2017); cited from earlier work.
For series [5], the system named is miR-122. The series is described as follows: miRNA detection using an RNase protection assay (chimeric DNA/RNA probe, ECL). Conditions: synthetic miR-122 miRNA. From the text:
An RNase protection assay can be used for miRNA quantification. In the assay, a DNA/RNA chimeric probe is used that contains an oligonucleotide tag sequence that is complementary a capture oligonucleotide sequence and a miRNA complementary sequence. The oligonucleotide tag sequence can be a single stranded DNA (ssDNA) sequence included on the 5′ end of the chimeric probe and the miRNA complementary sequence can be a single stranded RNA (ssRNA) sequence at the 3′ end of the chimeric probe, along with a terminal 3′ biotin.
Briefly, miRNA can be detected as follows: • 1). Hybridize miRNA to the chimeric probe in a thermal cycler to form a hybridization product; • 2). Block assay plate using one or more known blocking agent; • 3). Add hybridization product with formamide to the blocked assay plate under conditions in which the oligonucleotide tag sequence of the hybridization product can hybridize to the capture oligonucleotides on the assay plate. Incubate at 37° C.; • 4). Perform on-plate digestion of ssRNA with RNase A or RNase I (30° C.-37° C.) to digest the following: • a). ssRNA that has not been hybridized to the probe; • b). Probe hybridized to the plate without the complementary miRNA; and • c). […] Add Read Buffer B to assay plate and measure ECL signal generation with MSD Imager; and • 7). Compare the results against a calibration curve for quantification. […]

A further series has as its system rs1051730 (CHRNA3 D398N). The series can be described thus: Lung cancer SNP panel OLA on PCR-amplified cell line DNA. The settings on record: PCR-amplified DNA from HIL-60 cell line. The procedure:
as §1, §2, §3

The subject of the next series is rs1801133 (MTHFR C677T). Described as above. The settings on record: PCR-amplified DNA from HIL-60 cell line. The procedure:
as §1, §2, §3

In a further series the test system is rs3842 (ABCB1 c.*193A>G). The description is as above. The settings on record: PCR-amplified DNA from HIL-60 cell line. The procedure:
as §1, §2, §3

Series [6] deals with spot with the capture oligonucleotide with SEQ ID NO: 5. The series is described as follows: Comparison of blocking conditions for preparing arrays (cross-reactivity from cross-contamination). Format: binding.
The subject of a further series is rs2273535 (AURKA F31J). The series is described as follows: Lung cancer SNP panel OLA on PCR-amplified cell line DNA. Conditions: PCR-amplified DNA from HIL-60 cell line. The procedure: as §1, §2, §3
The test system of series [7] is rs1801270 (CDKN1A c.93C>A). The series is described as above. The settings on record: PCR-amplified DNA from HIL-60 cell line. The procedure:
as §1, §2, §3

Where two headings read alike, the source gives them in different places.

For “CHEK2 rs17879961 (DNA TCCATTGCCACTGTGATCTTC; listed as DNA, chemistry not given here)”, in series [1], the “% Mutant” value came to 0.8%, the “% Wild-type” value amounted to 99.2% and the Genotype entry is recorded as “Homozygous (WT) (Measured mutation percentages <20% were classified as homozygous wildtype samples)”.

For “ABCC1 rs212090 (DNA AGGCCATCTCCTTAATATTTACCC; listed as DNA, chemistry not given here)”, in series [2], the “% Mutant” value is 48.6%; the “% Wild-type” value is given as 51.4%; the Genotype entry was “Heterozygous (mutation percentages between 30% and 70% were classified as heterozygous (50% mutation))”.

In the case of “LOC123688 rs8034191 (DNA CCCTGATTTCCACAAGTCC; listed as DNA, chemistry not given here)”, in [3], the “% Mutant” value worked out at 1.0%, the “% Wild-type” value was determined as 99.0% and the Genotype entry is “Homozygous (WT) (Measured mutation percentages <20% were classified as homozygous wildtype samples)”.

In the case of “miR-122: synthetic miR-122 miRNA, target sequence in Table 47 (UGGAGUGUGACAAUGGUGUUUG; listed as RNA, chemistry not fully specified; the letters are possibly those of the target site)”, the concentration detected with miR-122 [4] is 500 fM; with miR-122 [5] it was 160 fM.

For “CHRNA3 rs1051730 (DNA CGGATGTACAGCGAGTATGTG; listed as DNA, chemistry not given here)”, in the series on rs1051730 (CHRNA3 D398N), the “% Mutant” value is 0.1%, the “% Wild-type” value is recorded as 99.9% and the Genotype entry is recorded as “Homozygous (WT) (Measured mutation percentages <20% were classified as homozygous wildtype samples)”.

For the molecule “MTHFR rs180113 (DNA CTTCACAAAGCGGAAGAATGTG; listed as DNA, chemistry not given here)”, in the series with rs1801133 (MTHFR C677T), the “% Mutant” value came out at 42.8%; the “% Wild-type” value came to 57.2%; the Genotype entry was “Heterozygous (mutation percentages between 30% and 70% were classified as heterozygous (50% mutation))”.

Take “ABCB1 rs3842 (DNA AGCAAGGCAGTCAGTTACAG; listed as DNA, chemistry not given here)”: in the series with rs3842 (ABCB1 c.*193A>G), the “% Mutant” value was determined as 52.4%; the “% Wild-type” value is 47.6%; the Genotype entry is “Heterozygous (mutation percentages between 30% and 70% were classified as heterozygous (50% mutation))”.

Turning to `N[C@@H](CS)C(=O)O` [cysteine], the cross-reactivity in series [6] (cysteine added to the Tris/Triton formulation) is given as no more than 0.01%. Further, the blocking effectiveness entry in series [6] (cysteine concentrations ranging from 5 to 50 to 500 mM, separate experiments) is “effective at blocking”.

As to “AURKA rs2273535 (DNA CTTCCATTCTAGGCTACAGCTC; listed as DNA, chemistry not given here)”, in the series with rs2273535 (AURKA F31J), the “% Mutant” value is 0.5%, the “% Wild-type” value was found to be 99.5% and the Genotype entry was “Homozygous (WT) (Measured mutation percentages <20% were classified as homozygous wildtype samples)”.

With “CDKN1A rs1801270 (DNA TCGAAGTTCCATCGCTCAC; listed as DNA, chemistry not given here)”, in series [7], the “% Mutant” value stood at 0.1%, the “% Wild-type” value is 99.9% and the Genotype result is listed as “Homozygous (WT) (Measured mutation percentages <20% were classified as homozygous wildtype samples)”.
